Melting point and EC50 data for six compounds are collected here from patent publication US7585880B2, “Phenylpropanoic acid derivatives” (Takeda Pharmaceutical Company Limited, priority 2003, dated 2009).

T1 sequence (O14842 whole entry): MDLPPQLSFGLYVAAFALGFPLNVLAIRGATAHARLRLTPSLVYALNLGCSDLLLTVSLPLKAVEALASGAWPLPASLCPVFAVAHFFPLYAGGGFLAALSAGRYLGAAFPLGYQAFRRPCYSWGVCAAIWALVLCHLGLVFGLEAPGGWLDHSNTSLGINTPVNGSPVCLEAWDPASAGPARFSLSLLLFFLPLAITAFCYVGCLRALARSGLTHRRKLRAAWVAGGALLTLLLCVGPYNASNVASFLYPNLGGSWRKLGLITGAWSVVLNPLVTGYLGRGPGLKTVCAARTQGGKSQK

Test system in the first series: not given
Assay: not given
Settings: not given
In turn, `O=C(O)CCc1ccc(OCc2ccc(CN(CCc3ccccc3)c3nc(-c4ccccc4)cs3)cc2)cc1` [Example 32, 3-[4-[[4-[[(2-phenylethyl)(4-phenyl-1,3-thiazol-2-yl)amino]methyl]benzyl]oxy]phenyl]propanoic acid] registered a melting point of 114 to 115 °C.

Another series has as its target T1, human GPR40 (Homo sapiens, UniProt O14842).
T1 construct: expressed in transfected cells
Kind of series: Determination of EC50 against human GPR40: intracellular calcium change by FLIPR in CHO cells. As to conditions: CHO cell line that stably expressed human GPR40; changes in intracellular calcium concentration measured by FLIPR (Fluo3-AM). The series is classed as cell-based. Here is the method: Determination of EC50 of the Compound of the Present Invention Against Human GPR40
For determination of EC50, CHO cell line that stably expressed human GPR40 was used. Unless otherwise indicated, the CHO cell line was cultured using α-MEM medium (Invitrogen) containing 10% fetal calf serum (Invitrogen).
The cells cultured to nearly confluent were rinsed with PBS (Invitrogen) on the previous day of the assay, peeled off with 0.05% Trypsin-EDTA solution (Invitrogen) and recovered by centrifugation. The number of the obtained cells was counted, and the cells were diluted such that 3×10^5 cells were contained per 1 mL of the medium, dispensed to a black welled 96-well plate (coster) by 100 μL per well and cultured overnight in a CO2 incubator. Various test compounds were added to the CHO cells thus prepared, and the changes in the intracellular calcium concentration was measured using FLIPR (Molecular Device). The below-mentioned pre-treatment was applied to measure changes in the intracellular calcium concentration by FLIPR.
An assay buffer for adding a fluorescent dye Fluo3-AM (DOJIN) to the cells, or for washing the cells immediately before FLIPR assay was prepared. To a solution of 1M HEPES (pH 7.4, DOJIN, 20 mL) added to HBSS (Invitrogen, 1000 mL) (hereinafter HBSS/HEPES solution) was added a solution (10 mL) obtained by dissolving probenecid (Sigma, 710 mg) in 1N NaOH (5 mL), and adding and mixing an HBSS/HEPES solution (5 mL), and the resulting solution was used as an assay buffer. Fluo3-AM (50 μg) was dissolved in dimethylsulfoxide (Wako, 21 μL), and an equivalent amount of 20% pluronic acid (Molecular Probes) was added and mixed. The solution was added to the assay buffer (10.6 mL) supplemented with fetal calf serum (105 μL) to give a fluorescent dye solution. On the previous day of assay, the medium of the CHO cells newly inoculated to the black welled 96-well plate was removed, the fluorescent dye solution was immediately dispensed by 100 μL per well and the cells were cultured in a CO2 incubator for 1 hr to allow intake of the fluorescent dye by the cells. The cells after the culture were washed with the above-mentioned assay buffer and set on FLIPR. The test compound was diluted with dimethylsulfoxide in advance, dispensed to polypropylene 96-well plate (sample plate) by 2 μL, and cryopreserved at −20° C. To the thawed sample plate was added an assay buffer containing 0.015% CHAPS (DOJIN) by 198 μL, and simultaneously set on FLIPR together with the cell plate. After the aforementioned pre-treatment, changes in the intracellular calcium concentration upon addition of various test compounds was measured by FLIPR. Based on the results, a dose-response curve of each test compound was formed and EC50 was calculated.
A general note: Calcium assays in cells follow changes in intracellular calcium, usually with a dye or a luminescent sensor.
Regarding `CC(C)c1csc(N(CCc2ccccc2)Cc2ccc(COc3ccc(CCC(=O)O)cc3)cc2)n1` [Example 2, 3-{4-[(4-{[(4-isopropyl-1,3-thiazol-2-yl)(2-phenylethyl)amino]methyl}benzyl)oxy]phenyl}propanoic acid], the EC50 was found to be 48 nM.

Turning to `CC(C)c1csc(N(CCc2ccc(F)cc2)Cc2ccc(COc3ccc(CCC(=O)O)c(F)c3)cc2)n1` [Example 9, 3-{2-fluoro-4-[(4-{[[2-(4-fluorophenyl)ethyl](4-isopropyl-1,3-thiazol-2-yl)amino]methyl}benzyl)oxy]-phenyl}propanoic acid], the 50% effective concentration (EC50) came out at 38 nM. Consider `O=C(O)CCc1ccc(OCc2ccc(CN(CCc3ccccn3)c3nc(-c4ccccc4)cs3)cc2)cc1` [Example 12, 3-{4-[(4-([(4-phenyl-1,3-thiazol-2-yl)(2-pyridin-2-ylethyl)amino]methyl}benzyl)oxy]phenyl)propanoic acid], for which the 50% effective concentration (EC50) stood at 19 nM.

Consider `CCCN(Cc1ccc(COc2ccc(CCC(=O)O)cc2)cc1)c1nc(-c2ccccc2)c(C)o1` [Example 40, 3-[4-[[4-[[(5-methyl-4-phenyl-1,3-oxazol-2-yl)(propyl)amino]methyl]benzyl]oxy]phenyl]propanoic acid], for which the EC50 came out at 55 nM. Consider `O=C(O)CCc1c(F)cc(OCc2ccc(CN(CCc3ccccc3)c3nc(-c4ccccc4)cs3)cc2)cc1F` [Example 42, 3-[2,6-difluoro-4-[[4-[[(2-phenylethyl)(4-phenyl-1,3-thiazol-2-yl)amino]methyl]benzyl]oxy]phenyl]propanoic acid], for which the EC50 was determined as 65 nM.

The melting point is the temperature, or range, at which the solid turns liquid. A word on the EC50: it is the concentration giving half of the maximal effect.
